Measured values: ChEMBL document CHEMBL1138947, “Potent inhibitors of the Qi site of the mitochondrial respiration complex III” (J Med Chem, 2006)
Calls of active or inactive are those of the source. No cut-off for these calls is given here.

How the values were obtained:
Parastagonospora nodorum [1] = assay: Inhibition of Septoria nodorum growth; format: functional
[2] = target: T1, Mitochondrial complex II; succinate dehydrogenase (Septoria tritici, UniProt G4XX53+O42772); assay: Inhibition of Septoria nodorum succinate dehydrogenase and Qi site of mitochondrial respiratory chain complex 3 by FMET2-3 assay; format: protein-complex assay, Parastagonospora nodorum
T1 sequence (G4XX53 whole entry): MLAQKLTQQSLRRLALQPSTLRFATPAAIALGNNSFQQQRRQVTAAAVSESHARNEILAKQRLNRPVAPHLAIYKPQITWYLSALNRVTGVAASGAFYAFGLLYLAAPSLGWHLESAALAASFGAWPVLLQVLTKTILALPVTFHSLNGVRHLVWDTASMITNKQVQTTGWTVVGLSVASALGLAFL
T1 sequence (O42772 whole entry): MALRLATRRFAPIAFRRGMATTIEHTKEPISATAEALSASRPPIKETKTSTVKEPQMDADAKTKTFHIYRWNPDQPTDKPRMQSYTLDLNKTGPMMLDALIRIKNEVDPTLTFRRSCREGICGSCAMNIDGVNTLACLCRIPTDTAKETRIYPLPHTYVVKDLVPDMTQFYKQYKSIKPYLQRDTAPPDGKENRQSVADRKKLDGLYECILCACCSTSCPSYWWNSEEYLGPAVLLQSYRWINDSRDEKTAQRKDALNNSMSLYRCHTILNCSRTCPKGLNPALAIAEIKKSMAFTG

Parastagonospora nodorum [3] = assay: Inhibition of Septoria nodorum growth in wheat at 40 ppm; format: functional, organism-based

Compound	GR50 (Parastagonospora nodorum [1]) [µM]	IC50 [2] [nM]	Activity (Parastagonospora nodorum [3])
O=C(Nc1ccc(Oc2ccccc2)cc1)c1ccc2c[nH]nc2c1O	1.909	127	inactive
CCCCCC[C@H]1C(=O)O[C@H](C)[C@H](NC(=O)c2cccc(NC=O)c2O)C(=O)O[C@@H](C)[C@@H]1OC(=O)CC(C)C [ANTIMYCIN A]	0.033	2	inactive
O=C(Nc1ccc(Oc2ccc(C(F)(F)F)cc2)cc1)c1sc2c[nH]nc2c1O	11.517	26	inactive
O=C(Nc1ccc(Oc2ccc(C(F)(F)F)cc2)cc1)c1ccc2[nH]nnc2c1O	>30	5	inactive
O=C(Nc1ccc(Oc2ccccc2)cc1)c1ccc2[nH]cnc2c1O	>30	> 30000	inactive
O=C(Nc1ccc(Oc2ccccc2)cc1)c1ccc2[nH]nnc2c1O	>30	–	inactive
O=C(Nc1ccc(Oc2ccccc2)cc1)c1ccc2nn[nH]c2c1O	–	32	–
O=C(Nc1ccc(Oc2ccc(C(F)(F)F)cc2)cc1)c1ccc2cn[nH]c2c1O	0.343	26	inactive
